Assay [1] has as its target T1, human NLRP3 (Homo sapiens (Human), UniProt Q96P20). Kind of assay: Human Whole Blood (hWB) NLRP3 Assay (LPS/ATP, IL-1β). In kind it is cell-based.
Assay [2] has as its target T1, human NLRP3. Kind of assay: Human PBMC NLRP3 Assay (LPS priming, ATP stimulation, cytokine measurement). In kind it is cell-based. The note with it: LPS priming, ATP stimulation.
Assay [3] concerns the target T1, human NLRP3. Kind of assay: Scintillation Proximity (SPA) NLRP3 Assay: displacement of 3H-MCC950. It is filed as binding. (In a scintillation proximity assay essentially only radioactivity close to the scintillant gives light.)
Setting [4] is: human whole blood, LPS/ATP, IL-1β, read-out: hWB IC50.
[5] abbreviates: human PBMC, read-out: PBMC IC50.
Where [6] appears, read: displacement of 3H-MCC950, read-out: SPA IC50.
[7] abbreviates: hWB IC50, human whole blood, LPS/ATP, IL-1β.

As a reminder, the IC50 is the concentration needed to halve the response being measured.

T1 sequence (Q96P20 whole entry): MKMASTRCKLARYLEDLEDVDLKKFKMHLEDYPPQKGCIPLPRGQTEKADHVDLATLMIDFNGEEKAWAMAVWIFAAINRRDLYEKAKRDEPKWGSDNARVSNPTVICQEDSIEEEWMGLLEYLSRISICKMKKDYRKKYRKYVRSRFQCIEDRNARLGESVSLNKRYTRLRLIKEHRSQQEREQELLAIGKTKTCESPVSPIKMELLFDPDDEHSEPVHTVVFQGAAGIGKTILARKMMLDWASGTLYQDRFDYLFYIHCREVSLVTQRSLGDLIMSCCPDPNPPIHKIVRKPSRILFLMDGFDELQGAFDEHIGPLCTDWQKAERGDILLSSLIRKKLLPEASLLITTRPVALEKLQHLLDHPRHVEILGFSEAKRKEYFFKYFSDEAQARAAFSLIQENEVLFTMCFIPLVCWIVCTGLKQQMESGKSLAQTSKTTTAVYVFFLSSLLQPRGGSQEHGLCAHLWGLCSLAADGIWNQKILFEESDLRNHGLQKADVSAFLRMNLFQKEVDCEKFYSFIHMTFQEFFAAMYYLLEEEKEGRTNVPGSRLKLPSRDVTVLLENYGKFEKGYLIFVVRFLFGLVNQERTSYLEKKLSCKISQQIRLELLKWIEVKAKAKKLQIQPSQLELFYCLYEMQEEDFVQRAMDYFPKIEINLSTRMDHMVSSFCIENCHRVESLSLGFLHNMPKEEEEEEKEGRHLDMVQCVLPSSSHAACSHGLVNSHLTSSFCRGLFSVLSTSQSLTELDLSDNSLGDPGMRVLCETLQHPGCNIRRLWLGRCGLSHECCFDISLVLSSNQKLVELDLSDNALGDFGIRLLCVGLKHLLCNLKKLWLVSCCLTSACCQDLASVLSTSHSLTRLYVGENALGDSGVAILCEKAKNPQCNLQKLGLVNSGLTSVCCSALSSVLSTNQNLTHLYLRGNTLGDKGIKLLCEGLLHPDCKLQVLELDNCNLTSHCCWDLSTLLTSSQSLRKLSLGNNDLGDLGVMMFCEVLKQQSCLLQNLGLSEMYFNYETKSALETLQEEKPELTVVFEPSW

Regarding `C[C@H]1CC[C@@H](NC(=O)C2(c3ccc(Cl)cc3O)CC2)CN(c2nnn[nH]2)C1` (single isomer, unassigned) [90A*], the IC50 in assay [1] (setting [4]) is more than 3000 nM; in assay [2] (setting [5]) it was less than 10 nM; in assay [3] (setting [6]), less than 1000 nM.
As to `C[C@H]1C[C@@H](NC(=O)C2(c3ccc(C(F)F)cc3O)CC2)CN(c2nnn[nH]2)C1` [Compound 48A, 1-(4-(difluoromethyl)-2-hydroxyphenyl)-N-((3R,5S)-5-methyl-1-(1H-tetrazol-5-yl)piperidin-3-yl)cyclopropane-1-carboxamide], the IC50 in assay [1] (setting [4]) and in assay [3] (setting [6]) was less than 1000 nM in each case.
Take `C[C@H]1C[C@@H](NC(=O)C2(c3ccc(C4CC4)cc3O)CC2)CN(c2nnn[nH]2)C1` [Compound 23A, 1-(4-cyclopropyl-2-hydroxyphenyl)-N-((3R,5S)-5-methyl-1-(1H-tetrazol-5-yl)piperidin-3-yl)cyclopropane-1-carboxamide]: the IC50 in assay [1] (setting [4]) is less than 1000 nM; in assay [2] (setting [5]), 10 to 100 nM; in assay [3] (setting [6]) it was less than 1000 nM.
Consider `C[C@H]1C[C@@H](NC(=O)C2(c3ccc(OC(F)F)cc3O)CC2)CN(c2nnn[nH]2)C1` [Compound 19A, 1-(4-(difluoromethoxy)-2-hydroxyphenyl)-N-((3R,5S)-5-methyl-1-(1H-tetrazol-5-yl)piperidin-3-yl)cyclopropane-1-carboxamide], for which the values for the IC50 in assay [1] (setting [4]), in assay [2] (setting [5]) and in assay [3] (setting [6]) were less than 1000 nM, 10 to 100 nM and less than 1000 nM, respectively.
With `C[C@@H]1CCN(c2nnn[nH]2)C[C@@H](NC(=O)C2(c3ccc(Cl)cc3O)CC2)C1` (single isomer, unassigned) [60B*], the IC50 in assay [1] (setting [4]) is less than 1000 nM; in assay [2] (setting [5]) it was 10 to 100 nM; in assay [3] (setting [6]) it was less than 1000 nM.
As for `O=C(N[C@@H]1CCC[C@@H]2CC[C@H]1N2c1nnn[nH]1)C1(c2ccc(C3CC3)cc2O)CC1` [93A*, N-((1R,2R,6R)-9-(1H-tetrazol-5-yl)-9-azabicyclo[4.2.1]nonan-2-yl)-1-(4-cyclopropyl-2-hydroxyphenyl)cyclopropane-1-carboxamide], the IC50 in assay [1] (setting [7]) is 2000 to 3000 nM; in assay [2] (PBMC IC50, human PBMC) it was 10 to 100 nM; in assay [3] (setting [6]), less than 1000 nM.
For the compound `C[C@@H]1CCN(c2nnn[nH]2)C[C@H](NC(=O)C2(c3cc(F)c(Cl)cc3O)CC2)C1` (single isomer, unassigned) [29A*, 1-(4-chloro-5-fluoro-2-hydroxyphenyl)-N-(5-methyl-1-(1H-tetrazol-5-yl)azepan-3-yl)cyclopropane-1-carboxamide], the half-inhibitory concentration (IC50) in assay [1] (setting [4]) was 1000 to 2000 nM; in assay [2] (setting [5]), 10 to 100 nM; in assay [3] (setting [6]) it was less than 1000 nM.
With `Cc1ccc(C2(C(=O)N[C@@H]3C[C@H](C)CCN(c4nnn[nH]4)C3)CC2)c(O)c1` (single isomer, unassigned) [67A*], the IC50 in assay [1] (setting [4]) is less than 1000 nM; in assay [2] (setting [5]) it was less than 10 nM; in assay [3] (setting [6]), less than 1000 nM.
In the case of `C[C@@H]1CCN(c2nnn[nH]2)C[C@H](NC(=O)C2(c3c(F)cc(Cl)cc3F)CC2)C1` (single isomer, unassigned) [72A*], the IC50 in assay [1] (setting [4]) is more than 3000 nM; in assay [2] (setting [5]) it was less than 10 nM; in assay [3] (setting [6]), less than 1000 nM.
Consider `C[C@@H]1CCN(c2nnn[nH]2)C[C@H](NC(=O)C2(c3ccc(OC(F)(F)F)cc3O)CC2)C1` (single isomer, unassigned) [62A*], for which the IC50 is less than 1000 nM in assay [1] (setting [4]), less than 10 nM in assay [2] (setting [5]) and less than 1000 nM in assay [3] (setting [6]).
Take `C[C@H]1CC[C@H](NC(=O)C2(c3ccc(C(F)(F)F)cc3O)CC2)CN(c2nnn[nH]2)C1` [89B*, 1-(2-hydroxy-4-(trifluoromethyl)phenyl)-N-((3S,6S)-6-methyl-1-(1H-tetrazol-5-yl)azepan-3-yl)cyclopropane-1-carboxamide]: the IC50 in assay [1] (setting [4]) is more than 3000 nM; in assay [2] (setting [5]), 10 to 100 nM; in assay [3] (setting [6]) it was less than 1000 nM.
For the compound `O=C(Nc1cccc(-c2ccccc2)c1)C1(c2ccc(Cl)cc2)CC1` [Comparative Example D, N-([1,1′-biphenyl]-3-yl)-1-(4-chlorophenyl)cyclopropane-1-carboxamide, reference compound], the IC50 in assay [1] (read-out: hWB IC50) was more than 50000 nM; in assay [3] (read-out: SPA IC50), 320000 nM.
For the compound `Cc1ccc(C2(C(=O)N[C@@H]3C[C@H](C)CCN(c4nnn[nH]4)C3)CC2)c(O)c1F` (single isomer, unassigned) [22A*, 1-(3-fluoro-2-hydroxy-4-methylphenyl)-N-(5-methyl-1-(1H-tetrazol-5-yl)azepan-3-yl)cyclopropane-1-carboxamide], the values for the IC50 in assay [1] (setting [4]) and in assay [2] (setting [5]) were less than 1000 nM and less than 10 nM, respectively.
Consider `O=C(N[C@@H]1C[C@@H](C(F)(F)F)[C@@H]2CC[C@H]1N2c1nnn[nH]1)C1(c2ccc(Cl)cc2)CC1` (single isomer, unassigned) [103A*], for which the IC50 in assay [1] (setting [7]) was less than 1000 nM; in assay [3] (SPA IC50, displacement of 3H-MCC950), less than 1000 nM.
Turning to `C[C@@H]1C[C@H](NC(=O)C2(c3ccc(OC(F)F)cc3O)CC2)[C@H]2CC[C@@H]1N2c1nnn[nH]1` [43B*, N-((1R,2S,4R,5S)-4-methy1-8-(1H-tetrazol-5-yl)-8-azabicyclo[3.2.1]octan-2-yl)-1-(4-(difluoromethoxy)-2-hydroxyphenyl)cyclopropane-1-carboxamide], the values for the IC50 in assay [1] (setting [4]) and in assay [3] (setting [6]) were more than 3000 nM and less than 1000 nM, respectively.
As for `C[C@@H]1C[C@@H](NC(=O)C2(c3ccc(C4CC4(F)F)cc3)CC2)[C@H]2CC[C@@H]1N2c1nnn[nH]1` (single isomer, unassigned) [37A*], the IC50 in assay [1] (setting [7]) is 1000 to 2000 nM; in assay [3] (setting [6]) it was less than 1000 nM.
For the compound `CN(C(=O)C1(c2ccc(Cl)cc2)CC1)c1cccc(-c2nnn[nH]2)c1` [Comparative Example B2, N-(3-(1H-tetrazol-5-yl)phenyl)-1-(4-chlorophenyl)-N-methylcyclopropane-1-carboxamide, reference compound], the values for the IC50 in assay [1] (read-out: hWB IC50) and in assay [3] (read-out: SPA IC50) were more than 50000 nM and 200000 nM, respectively.
With `C[C@@H]1C[C@H]2CC[C@@H]([C@H](NC(=O)C3(c4ccc(C(F)(F)F)cc4)CC3)C1)N2c1nnn[nH]1` [104C*, N-((1S,2R,4S,6R)-4-methyl-9-(1H-tetrazol-5-yl)-9-azabicyclo[4.2.1]nonan-2-yl)-1-(4-(trifluoromethyl)phenyl)cyclopropane-1-carboxamide], the IC50 in assay [1] (setting [7]) and in assay [3] (setting [6]) was less than 1000 nM each time.
Turning to `O=C(N[C@@H]1CCCCN(c2nnn[nH]2)C1)C1(c2ccc(Cl)cc2O)CC1` [Compound 52A, (R)-N-(1-(1H-tetrazol-5-yl)azepan-3-yl)-1-(4-chloro-2-hydroxyphenyl)cyclopropane-1-carboxamide], the IC50 in assay [1] (setting [4]) was less than 1000 nM; in assay [1] (read-out: hWB IC50), 260 nM; in assay [3] (setting [6]), less than 1000 nM; in assay [3] (read-out: SPA IC50) it was 79 nM.
Regarding `O=C(N[C@@H]1CCN(c2nnn[nH]2)C1)C1(c2ccc(Cl)cc2)CC1` (single isomer, unassigned) [Comparative Example A*, reference compound], the IC50 in assay [1] (read-out: hWB IC50) is more than 50000 nM; in assay [3] (read-out: SPA IC50), 420000 nM.
`C[C@H]1C[C@@H]2CC[C@H]([C@H](NC(=O)C3(c4ccc(C(F)(F)F)cc4)CC3)C1)N2c1nnn[nH]1` [104A*, N-((1R,2R,4R,6S)-4-methyl-9-(1H-tetrazol-5-yl)-9-azabicyclo[4.2.1]nonan-2-yl)-1-(4-(trifluoromethyl)phenyl)cyclopropane-1-carboxamide]: the IC50 is 2000 to 3000 nM in assay [1] (setting [7]) and less than 1000 nM in assay [3] (setting [6]).
As to `C[C@@H]1CC(NC(=O)C2(c3ccc(OC(F)F)cc3O)CC2)[C@H]2CC[C@@H]1N2c1nnn[nH]1` (single isomer, unassigned) [43A*], the 50% inhibitory concentration (IC50) in assay [1] (setting [7]) and in assay [3] (setting [6]) was less than 1000 nM in each case.

Values taken from patent US20260007684A1, “AMIDE DERIVATIVES FOR INHIBITING NLRP3 AND USES THEREOF” (Ventus Therapeutics U.S., Inc., priority 2023, published 2026).
